Measurements: US11780893B2, “Kv1.3 blockers” (Zealand Pharma A/S, priority 2019, dated 2023)
Bridge positions count the residues as written; N and C are the ends. Square brackets hold non-standard residues; d marks the D form. Peptide text beside a SMILES is read from it. Nle = CCCC[C@H](N)C(=O)O

Target: T1, human Kv1.3 voltage-gated K+ channel (Homo sapiens, UniProt P22001)
T1 construct: host or cells: CHO-DUKX
Assay: cell-based
Details: inhibition of thallium flux, CHO-DUKX cells with human Kv1.3; read-out: IC50

T1 sequence (P22001 whole entry): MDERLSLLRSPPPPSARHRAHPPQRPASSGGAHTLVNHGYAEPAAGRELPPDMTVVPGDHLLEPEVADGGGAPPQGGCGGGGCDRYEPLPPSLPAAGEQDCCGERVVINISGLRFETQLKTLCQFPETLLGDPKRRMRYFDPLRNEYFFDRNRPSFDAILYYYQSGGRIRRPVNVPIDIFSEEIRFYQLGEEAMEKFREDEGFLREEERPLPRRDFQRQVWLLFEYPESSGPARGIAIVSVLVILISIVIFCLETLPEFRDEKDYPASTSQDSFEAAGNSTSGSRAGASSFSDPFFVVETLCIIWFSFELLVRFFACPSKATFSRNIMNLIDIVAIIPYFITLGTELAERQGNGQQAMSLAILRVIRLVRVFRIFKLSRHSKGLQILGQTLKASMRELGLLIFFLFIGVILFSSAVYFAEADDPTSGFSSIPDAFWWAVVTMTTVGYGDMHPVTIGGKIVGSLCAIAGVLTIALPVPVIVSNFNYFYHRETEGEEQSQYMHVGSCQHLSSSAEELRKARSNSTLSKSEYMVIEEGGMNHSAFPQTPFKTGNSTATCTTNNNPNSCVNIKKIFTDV

Row | Compound | IC50 [pM]
1 | CCCC[C@H](NC(=O)[C@@H](N)CC(N)=O)C(=O)N[C@@H](CC(=O)O)C(=O)N[C@@H](CCSC)C(=O)N[C@@H](CCCNC(=N)N)C(=O)N[C@H]1CSSC[C@@H]2NC(=O)[C@H](CCCCN)NC(=O)CNC(=O)[C@H](Cc3ccccc3)NC(=O)[C@H]([C@@H](C)CC)NC(=O)[C@H](CO)NC(=O)CNC(=O)[C@H]([C@@H](C)CC)NC(=O)[C@H](C)NC(=O)[C@H](CCCCN)NC(=O)[C@H](CC(C)C)NC(=O)[C@@H]3CSSC[C@@H](C(=O)N[C@@H](Cc4ccc(O)cc4)C(=O)N4CCC[C@H]4C(=O)N[C@@H](CCCNC(=N)N)C(N)=O)NC(=O)[C@H](CCCCN)NC(=O)[C@H](CSSC[C@H](NC(=O)[C@H](CCC(=O)O)NC(=O)[C@H](C(C)C)NC(=O)[C@H](CO)NC(=O)[C@H](C)NC(=O)[C@H](CO)NC1=O)C(=O)N[C@@H](CCCCN)C(=O)N[C@@H](CCC(N)=O)C(=O)N[C@@H](CCCCN)C(=O)N3)NC(=O)[C@H](CCCCN)NC(=O)[C@H](CCCCN)NC(=O)[C@H](CC(N)=O)NC(=O)[C@H](CCSC)NC2=O [Compound 14] (H-N[Nle]DMRCSASVECKQKCLKAIGSIFGKCMNKKCKCYPR-NH2; disulfide 6-27, 12-32, 16-34) | 160
2 | CCCC[C@H](NC(=O)[C@@H]1CCCN1)C(=O)N[C@@H](CCC(=O)O)C(=O)N[C@@H](CCCC)C(=O)N[C@@H](CCCNC(=N)N)C(=O)N[C@H]1CSSC[C@@H]2NC(=O)[C@H](CCCCN)NC(=O)CNC(=O)[C@H](Cc3ccccc3)NC(=O)[C@H]([C@@H](C)CC)NC(=O)[C@H](CO)NC(=O)CNC(=O)[C@H]([C@@H](C)CC)NC(=O)[C@H](C)NC(=O)[C@H](C)NC(=O)[C@H](CC(C)C)NC(=O)[C@@H]3CSSC[C@@H](C(=O)N[C@@H](Cc4ccc(O)cc4)C(=O)N4CCC[C@H]4C(=O)N[C@@H](CCCNC(=N)N)C(=O)N[C@@H](CCCNC(=N)N)C(=O)O)NC(=O)[C@H](CCCCN)NC(=O)[C@H](CSSC[C@H](NC(=O)[C@H](CCC(=O)O)NC(=O)[C@H](C(C)C)NC(=O)[C@H](CO)NC(=O)[C@H](C)NC(=O)[C@H](CO)NC1=O)C(=O)N[C@@H](CCCCN)C(=O)N[C@@H](CCC(N)=O)C(=O)N[C@@H](CCCCN)C(=O)N3)NC(=O)[C@H](CCCCN)NC(=O)[C@H](CCCCN)NC(=O)[C@H](CC(N)=O)NC(=O)[C@H](CCCC)NC2=O [Compound 122] (H-P[Nle]E[Nle]RCSASVECKQKCLAAIGSIFGKC[Nle]NKKCKCYPRR-OH; disulfide 6-27, 12-32, 16-34) | 226
3 | CCCC[C@@H]1NC(=O)[C@@H]2CSSC[C@H](NC(C)=O)C(=O)N[C@@H](CO)C(=O)N[C@@H](C)C(=O)N[C@@H](CO)C(=O)N[C@@H](C(C)C)C(=O)N[C@@H](CCC(=O)O)C(=O)N[C@H]3CSSC[C@H](NC(=O)[C@H](CCCCN)NC(=O)[C@H](CCCCN)NC(=O)[C@H](CC(N)=O)NC1=O)C(=O)N[C@@H](CCCCN)C(=O)N[C@H](C(=O)N[C@@H](Cc1ccc(O)cc1)C(=O)N[C@@H](CO)C(N)=O)CSSC[C@H](NC(=O)[C@H](CCCCN)NC(=O)[C@H](CCC(N)=O)NC(=O)[C@H](CCCCN)NC3=O)C(=O)N[C@@H](CC(C)C)C(=O)N[C@@H](CCCCN)C(=O)N[C@@H](C)C(=O)N[C@@H]([C@@H](C)CC)C(=O)NCC(=O)N[C@@H](CO)C(=O)N[C@@H]([C@@H](C)CC)C(=O)N[C@@H](Cc1ccccc1)C(=O)NCC(=O)N[C@@H](CCCCN)C(=O)N2 [Compound 110] (Ac-CSASVECKQKCLKAIGSIFGKC[Nle]NKKCKCYS-NH2; disulfide 1-22, 7-27, 11-29) | 2300
4 | CCCC[C@H](NC(=O)[C@@H]1CCCN1)C(=O)N[C@@H](CCC(=O)O)C(=O)N[C@@H](CCCC)C(=O)N[C@@H](CCCNC(=N)N)C(=O)N[C@H]1CSSC[C@@H]2NC(=O)[C@H](CCCCN)NC(=O)CNC(=O)[C@H](Cc3ccccc3)NC(=O)[C@H]([C@@H](C)CC)NC(=O)[C@H](CO)NC(=O)CNC(=O)[C@H]([C@@H](C)CC)NC(=O)[C@H](C)NC(=O)[C@H](C)NC(=O)[C@H](CC(C)C)NC(=O)[C@@H]3CSSC[C@@H](C(=O)N[C@@H](Cc4ccc(O)cc4)C(=O)N4CCC[C@H]4C(=O)N[C@@H](CCCNC(=N)N)C(=O)O)NC(=O)[C@H](CCCCN)NC(=O)[C@H](CSSC[C@H](NC(=O)[C@H](CCC(=O)O)NC(=O)[C@H](C(C)C)NC(=O)[C@H](CO)NC(=O)[C@H](Cc4ccc(O)cc4)NC(=O)[C@H](CO)NC1=O)C(=O)N[C@@H](CCCCN)C(=O)N[C@@H](CCC(N)=O)C(=O)N[C@@H](CCCCN)C(=O)N3)NC(=O)[C@H](CCCCN)NC(=O)[C@H](CCCCN)NC(=O)[C@H](CC(N)=O)NC(=O)[C@H](CCCC)NC2=O [Compound 144] (H-P[Nle]E[Nle]RCSYSVECKQKCLAAIGSIFGKC[Nle]NKKCKCYPR-OH; disulfide 6-27, 12-32, 16-34) | 739
5 | CCCC[C@@H]1NC(=O)[C@@H]2CSSC[C@H](NC(C)=O)C(=O)N[C@@H](CO)C(=O)N[C@@H](C)C(=O)N[C@@H](CO)C(=O)N[C@@H](C(C)C)C(=O)N[C@@H](CCC(=O)O)C(=O)N[C@H]3CSSC[C@H](NC(=O)[C@H](CCCCN)NC(=O)[C@H](CCCCN)NC(=O)[C@H](CC(N)=O)NC1=O)C(=O)N[C@@H](CCCCN)C(=O)N[C@H](C(=O)N[C@@H](Cc1ccc(O)cc1)C(=O)N1CCC[C@H]1C(=O)N[C@@H](CO)C(N)=O)CSSC[C@H](NC(=O)[C@H](CCCCN)NC(=O)[C@H](CCC(N)=O)NC(=O)[C@H](CCCCN)NC3=O)C(=O)N[C@@H](CC(C)C)C(=O)N[C@@H](CCCCN)C(=O)N[C@@H](C)C(=O)N[C@@H]([C@@H](C)CC)C(=O)NCC(=O)N[C@@H](CO)C(=O)N[C@@H]([C@@H](C)CC)C(=O)N[C@@H](Cc1ccccc1)C(=O)NCC(=O)N[C@@H](CCCCN)C(=O)N2 [Compound 109] (Ac-CSASVECKQKCLKAIGSIFGKC[Nle]NKKCKCYPS-NH2; disulfide 1-22, 7-27, 11-29) | 960
6 | CCCC[C@@H]1NC(=O)[C@@H]2CSSC[C@H](NC(=O)[C@H](CCCNC(=N)N)NC(=O)[C@H](CCCC)NC(=O)[C@H](CCC(=O)O)NC(=O)[C@@H](N)CCCC)C(=O)N[C@@H](CO)C(=O)N[C@@H](C)C(=O)N[C@@H](CO)C(=O)N[C@@H](C(C)C)C(=O)N[C@@H](CCC(=O)O)C(=O)N[C@H]3CSSC[C@H](NC(=O)[C@H](CCCCN)NC(=O)[C@H](CCCCN)NC(=O)[C@H](CC(N)=O)NC1=O)C(=O)N[C@@H](CCCCN)C(=O)N[C@H](C(=O)N[C@@H](Cc1ccc(O)cc1)C(=O)N1CCC[C@H]1C(=O)N[C@@H](CCCNC(=N)N)C(=O)O)CSSC[C@H](NC(=O)[C@H](CCCCN)NC(=O)[C@H](CCC(N)=O)NC(=O)[C@H](CCCCN)NC3=O)C(=O)N[C@@H](CC(C)C)C(=O)N[C@@H](C)C(=O)N[C@@H](C)C(=O)N[C@@H]([C@@H](C)CC)C(=O)NCC(=O)N[C@@H](CO)C(=O)N[C@@H]([C@@H](C)CC)C(=O)N[C@@H](Cc1ccccc1)C(=O)NCC(=O)N[C@@H](CCCCN)C(=O)N2 [Compound 121] (H-[Nle]E[Nle]RCSASVECKQKCLAAIGSIFGKC[Nle]NKKCKCYPR-OH; disulfide 5-26, 11-31, 15-33) | 451
7 | CC[C@H](C)[C@@H]1NC(=O)[C@H](CCCCN)NC(=O)[C@H](CC(C)C)NC(=O)[C@@H]2CSSC[C@@H](C(=O)N[C@@H](Cc3ccc(O)cc3)C(=O)N3CCC[C@H]3C(=O)N[C@@H](CCCNC(=N)N)C(N)=O)NC(=O)[C@H](CCCCN)NC(=O)[C@@H]3CSSC[C@H](NC(=O)[C@H](CCC(=O)O)NC(=O)[C@H](C(C)C)NC(=O)[C@H](CO)NC(=O)[C@H](C)NC(=O)[C@H](CO)NC(=O)[C@@H](NC(=O)[C@H](CCCNC(=N)N)NC(=O)[C@H](CCSC)NC(=O)[C@H](CC(=O)O)NC(=O)[C@H](CCSC)NC(=O)[C@@H](N)CC(N)=O)CSSC[C@H](NC(=O)[C@H](CCCCN)NC(=O)CNC(=O)[C@H](Cc4ccccc4)NC(=O)[C@H]([C@@H](C)CC)NC(=O)[C@H](CO)NC(=O)CNC1=O)C(=O)N[C@@H](CCSC)C(=O)N[C@@H](CC(N)=O)C(=O)N[C@@H](CCCCN)C(=O)N[C@@H](CCCCN)C(=O)N3)C(=O)N[C@@H](CCCCN)C(=O)N[C@@H](CCC(N)=O)C(=O)N[C@@H](CCCCN)C(=O)N2 [Compound 57] (H-NMDMRCSASVECKQKCLKIGSIFGKCMNKKCKCYPR-NH2; disulfide 6-26, 12-31, 16-33) | 110
8 | CCCC[C@H](NC(=O)[C@H](CC(=O)O)NC(=O)[C@H](CCCC)NC(=O)[C@@H](N)CO)C(=O)N[C@@H](CCCNC(=N)N)C(=O)N[C@H]1CSSC[C@@H]2NC(=O)[C@H](CCCCN)NC(=O)CNC(=O)[C@H](Cc3ccccc3)NC(=O)[C@H]([C@@H](C)CC)NC(=O)[C@H](CO)NC(=O)CNC(=O)[C@H]([C@@H](C)CC)NC(=O)[C@H](C)NC(=O)[C@H](CCCCN)NC(=O)[C@H](CC(C)C)NC(=O)[C@@H]3CSSC[C@@H](C(=O)N[C@@H](Cc4ccc(O)cc4)C(=O)N4CCC[C@H]4C(=O)N[C@@H](CCCNC(=N)N)C(N)=O)NC(=O)[C@H](CCCCN)NC(=O)[C@H](CSSC[C@H](NC(=O)[C@H](CCC(=O)O)NC(=O)[C@H](C(C)C)NC(=O)[C@H](CC(C)C)NC(=O)[C@H](C)NC(=O)[C@H](CO)NC1=O)C(=O)N[C@@H](CCCCN)C(=O)N[C@@H](CCC(N)=O)C(=O)N[C@@H](CCCCN)C(=O)N3)NC(=O)[C@H](CCCCN)NC(=O)[C@H](CCCCN)NC(=O)[C@H](CC(N)=O)NC(=O)[C@H](CCSC)NC2=O [Compound 89] (H-S[Nle]D[Nle]RCSALVECKQKCLKAIGSIFGKCMNKKCKCYPR-NH2; disulfide 6-27, 12-32, 16-34) | 2700
9 | CCCC[C@H](NC(=O)[C@@H]1CCCN1)C(=O)N[C@@H](CCC(=O)O)C(=O)N[C@@H](CCCC)C(=O)N[C@@H](CCCNC(=N)N)C(=O)N[C@H]1CSSC[C@@H]2NC(=O)[C@H](CCCCN)NC(=O)CNC(=O)[C@H](Cc3ccccc3)NC(=O)[C@H]([C@@H](C)CC)NC(=O)[C@H](CO)NC(=O)CNC(=O)[C@H]([C@@H](C)CC)NC(=O)[C@H](C)NC(=O)[C@H](C)NC(=O)[C@H](CC(C)C)NC(=O)[C@@H]3CSSC[C@@H](C(=O)N[C@@H](Cc4ccc(O)cc4)C(=O)N4CCC[C@H]4C(=O)N[C@@H](CCCNC(=N)N)C(=O)N[C@@H](CO)C(=O)N[C@H](C(=O)O)[C@@H](C)O)NC(=O)[C@H](CCCCN)NC(=O)[C@H](CSSC[C@H](NC(=O)[C@H](CCC(=O)O)NC(=O)[C@H](C(C)C)NC(=O)[C@H](CO)NC(=O)[C@H](C)NC(=O)[C@H](CO)NC1=O)C(=O)N[C@@H](CCCCN)C(=O)N[C@@H](CCC(N)=O)C(=O)N[C@@H](CCCCN)C(=O)N3)NC(=O)[C@H](CCCCN)NC(=O)[C@H](CCCCN)NC(=O)[C@H](CC(N)=O)NC(=O)[C@H](CCCC)NC2=O [Compound 133] (H-P[Nle]E[Nle]RCSASVECKQKCLAAIGSIFGKC[Nle]NKKCKCYPRST-OH; disulfide 6-27, 12-32, 16-34) | 1100
